Patent publication US9024022B2, “Substrates of O6-alkylguanine-DNA alkyltransferase and mutants thereof” (Cis Bio International, priority 2008, dated 2015)

How the values were obtained:
[1] = molecular target: T1, CLIP-tag enzyme (CLIPtag-mGluR2 fusion protein) (Homo sapiens, UniProt P16455, A121V/A127T/A154D/C150Q/C62A/G131N/G132T/G153S/K125A/K32I/L33F/M134L/M60I/N157P/Q115S/Q116H/R128A/R135D/S151G/S152D/S159L/Y114E); assay: Cell model with CLIPtag-mGluR2 and SNAPtag-mGluR2 cotransfection, TR-FRET at 665 nm; format: cell-based; conditions: cells incubated with 300 nM of BG-methylbenzamide-Tb(KR); TR-FRET; read-out: half saturation concentration of CLIPtag
T1 construct: The co-expressed SNAPtag-mGluR2 is a separate chain that carries the FRET partner dye
T1 sequence (P16455 1-207 K32I/L33F/M60I/C62A/Y114E/Q115S/Q116H/A121V/K125A/A127T/R128A/G131N/G132T/M134L/R135D/C150Q/S151G/S152D/G153S/A154D/N157P/S159L): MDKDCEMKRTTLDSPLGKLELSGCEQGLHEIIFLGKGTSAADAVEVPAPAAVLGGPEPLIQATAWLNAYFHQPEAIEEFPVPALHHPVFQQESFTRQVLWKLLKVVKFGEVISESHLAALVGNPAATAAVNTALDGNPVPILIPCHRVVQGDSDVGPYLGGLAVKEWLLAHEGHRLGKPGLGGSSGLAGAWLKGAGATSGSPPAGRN
Description: The cell model used in this example is different from that used in the preceding examples:
The cells are either cotransfected with a plasmid coding for the fusion protein CLIPtag-mGluR2 and another plasmid coding for the fusion protein SNAPtag-mGluR2, or transfected with a single plasmid coding for the fusion protein SNAPtag-mGluR2.
Each cell population is incubated in the presence of 300 nM of BG-methylbenzamide-DY647 and increasing concentrations of reference substrates (BC-Tb(KR)) or of a substrate according to the invention (BC-methylbenzamide-Tb(KR)). The fluorescence is measured at 665 nm in TR-FRET mode on a Rubystar machine and the signal measured is representative of a transfer of energy following the dimerization of two monomers of mGluR2 labeled respectively by DY647 and Tb(KR).
This example is carried out in the same way as example 7 but the cells are incubated in the presence of 300 nM of BG-methylbenzamide-Tb(KR) and increasing concentrations of reference substrate (BC-DY647) or of substrate according to the invention (BC-methylbenzamide-DY647), the formulae of which are below: […]

[2] = molecular target: T2, SNAP-tag-ST26 enzyme (SNAP-tag-mGluR2 fusion protein) (Homo sapiens, UniProt P16455, A127T/C150S/C62A/G131K/G132T/K125A/M134L/N157G/R128A/R135S/S159E); assay: Enzymatic reactivity test in a cell model, SNAP-tag-mGluR2 expressed by COS 7 cells; format: cell-based; conditions: living COS 7 cells, labeling 1 h at 37° C., read-out: half saturation concentration of the enzyme
T2 construct: expressed in transfected cells; host or cells: COS 7 cells, transient electroporation
T2 sequence (P16455 1-182 C62A/K125A/A127T/R128A/G131K/G132T/M134L/R135S/C150S/N157G/S159E limits assumed): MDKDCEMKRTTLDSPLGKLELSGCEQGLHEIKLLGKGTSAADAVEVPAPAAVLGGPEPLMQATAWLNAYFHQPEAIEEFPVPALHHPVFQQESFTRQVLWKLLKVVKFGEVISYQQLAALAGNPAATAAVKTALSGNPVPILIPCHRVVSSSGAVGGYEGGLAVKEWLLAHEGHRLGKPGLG
Description: (§1) This procedure makes it possible to test the reactivity of substrates according to the invention with an AGT expressed by COS 7 cells in the form of a fusion protein with the type 2 glutamate transmembrane receptor (mGluR2).
(§2) Various mutants of AGT were analyzed in this study: SNAP-tag-ST26 or CLIP-tag from Covalys or the N-AGT mutant described by Gronemeyer et al. (Protein Engineering, Design & Selection, Vol. 19, No. 7, pp. 309-316, 2006).
• SNAP-tag-mGluR2 plasmid, prepared from the pSET-26b plasmid according to the protocol of the commercial kit (SNAP express pSTE7-26b kit, Covalys Biosciences) • Invitrogen pcdna3.1 plasmid. This plasmid is used as a negative control; the cells transfected with this plasmid are denoted “mock” and make it possible to determine the level of non-specific labeling. Protocol:
(§3) The transient transfection of the cells is carried out by electroporation using a Biorad electroporator: 10 million cells are transfected by 1 μg SNAP-tag-mGluR2+3 μg pcdna3.1 in a final volume of 300 μl. The electroporation parameters are: 280 V & 1000 μF.
(§4) The cells are then seeded at 150 000 cells per well in Greiner plates (opaque black bottom) previously incubated with polyornithine for 30 minutes at 37° C.
(§5) The cells are cultured in the DMEM+Phenol Red+10% FCS+penicillin/streptomycin+non-essential amino acids medium at 37° C. and 5% CO2. After 24 h of expression, a first washing operation is carried out with 100 μl of this same medium.
(§6) The labeling of the AGT-mGluR2 fusion protein takes place in 100 μl of complete medium with increasing concentrations of BG-fluorophore or BG-L1-A-L2-fluorophore according to the invention for 1 h at 37° C. Before the reading, 4 washing operations are carried out with 100 μl of Tris-Krebs.
(§7) For the substrates bearing fluorophores ATTO647 (example 2), DY647 (examples 1 and 5) and fluorescein-5-EX (example 3), the reading is carried out in 100 μl of Tris-Krebs in direct fluorescence at 682 nm on a Rubystar machine, and at 520 nm for those bearing fluorescein-5-EX (example 3).
(§8) For the substrates bearing the terbium KR complex (examples 4 and 6), the reading is taken in 100 μl of Tris-Krebs in time-resolved fluorescence at 620 nm on a Rubystar machine.

[3] = molecular target: T3, N-AGT enzyme (AGT-mGluR2 fusion protein) (Homo sapiens, UniProt P16455); assay: Enzymatic reactivity test in a cell model, N-AGT mutant; format: cell-based; conditions: for EC50: living cells, N-AGT mutant, labeling 1 h at 37° C., read-out: half saturation concentration of the enzyme
T3 construct: fused on or other part: type 2 metabotropic glutamate receptor (mGluR2)
Description: as §1, §2, §3, §4, §5, §6, §7, §8
In order to validate the effect of the substrate according to the invention on another mutant of AGT, a characterization of extracellular labeling with the NAGT mutant was carried out.

[4] = molecular target: T4, SNAP-tag enzyme (GST-SNAP-tag-FKBP fusion protein) (Homo sapiens, UniProt P16455, A127T/C150S/C62A/G131K/G132T/K125A/M134L/N157G/R128A/R135S/S159E); assay: Enzymatic reactivity test in an in vitro model (TR-FRET labeling of GST-SNAPtag-FKBP recombinant protein); format: biochemical; conditions: for reactivity of the substrate with the SNAP-tag enzyme: in vitro protein labeling, compared with reference substrate; for percentage of labeling of the SNAP-tag enzyme compared with the reference substrate: in vitro, after 30 min of incubation, regardless of the concentration of substrate
T4 construct: GST (N)
T4 sequence (P16455 1-182 C62A/K125A/A127T/R128A/G131K/G132T/M134L/R135S/C150S/N157G/S159E limits assumed): T2 sequence (P16455 1-182 C62A/K125A/A127T/R128A/G131K/G132T/M134L/R135S/C150S/N157G/S159E limits assumed)
Description: The test of reactivity of the substrates according to the invention with the SNAP-tag enzyme is based on an in vitro test of labeling a recombinant protein.
In this case, use is made of the FRB and FKBP proteins that interact in the presence of rapamycin.
The FKBP protein is labeled by a first fluorophore via SNAP-tag technology: for this, a GST-SNAPtag-FKBP fusion protein is produced from the pSET7-26b plasmid according to the protocol of the commercial kit (SNAP express pSET7-26b kit, Covalys Biosciences AG, Witterswil/Switzerland). This fusion protein is then brought into contact with the first fluorophore conjugated to a reference BG derivative or to a BG derivative according to the invention.
The FRB protein is itself coupled via conventional conjugation techniques with a donor fluorescent compound (europium TBP cryptate (KTBP), Cisbio Bioassay) or acceptor fluorescent compound (DY647, Dyomics) depending on the case, following the protocols provided with these products.
The table below explains the nature of the pairs of fluorophores in each of the following examples 1 to 4:
In each example, 2 nmol of FRB recombinant protein labeled with a europium cryptate or DY647 (2nd fluorophore) are co-incubated at ambient temperature with 2 nmol of GST-SNAP-tag-FKBP recombinant protein and increasing concentrations of BG labeled by the first fluorophore (BG-fluorophore of the prior art or BG-L1-A-L2-fluorophore according to the invention).
The fluorescence readings are taken at 620 nm and at 665 nm on a RubyStar machine (BMG laboratory) after an excitation at 337 nm. The readings are carried out before and after induction of the FRB/FKBP protein interaction by 100 nM of rapamycin. This interaction is expressed by the emission of a TR-FRET signal. Since the SNAP-tag enzyme can only attach to a single fluorescent group, the increase in the TR-FRET signal is directly proportional to the percentage of labeled proteins in the reaction medium. This in vitro model makes it possible to establish enzymatic labeling kinetics as a function of the excess of substrate involved in the reaction.
The results are indicated either as d665 or as % labeling according to the following formulae: d 665=(signal at 665 nm with the GST-ST-FKBP protein)−(signal at 665 nm without the GST-ST-FKBP protein).
The percentage of labeling is obtained by comparison with the signal corresponding to the maximum labeling that is obtained after 18 hours of incubation. % labeling=(d665 at t measured/d665 18 h of incubation)×100. Procedure of the Enzymatic Reactivity Test in a Cell Model

T3 sequence (P16455 whole entry, looked up, the tested form may be a part): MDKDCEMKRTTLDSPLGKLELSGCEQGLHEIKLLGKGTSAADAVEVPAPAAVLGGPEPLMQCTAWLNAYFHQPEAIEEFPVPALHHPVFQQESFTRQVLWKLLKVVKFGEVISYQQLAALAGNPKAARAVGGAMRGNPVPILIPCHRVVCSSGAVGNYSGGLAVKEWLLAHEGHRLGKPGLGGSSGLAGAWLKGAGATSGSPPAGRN

`CCN1/C(=C/C=C/C=C/C2=[N+](CC)c3ccc(S(=O)(=O)[O-])cc3C2(C)C)C(C)(CCCC(=O)NCc2ccc(COc3nccc(N)n3)cc2)c2cc(S(=O)(=O)O)ccc21` (stereo not drawn) [BC-DY647, benzylcytosine-DY647, reference compound] was tested, and the EC50 [1] was 1.57 µM.

For `CCN1/C(=C/C=C/C=C/C2=[N+](CC)c3ccc(S(=O)(=O)[O-])cc3C2(C)C)C(C)(CCCC(=O)NCc2ccc(C(=O)NCc3ccc(COc4nccc(N)n4)cc3)cc2)c2cc(S(=O)(=O)O)ccc21` (stereo not drawn) [BC-methylbenzamide-DY647, DY647-methylbenzamide-BC], the EC50 [1] was 0.24 µM.

Compound `CCN1/C(=C/C=C/C=C/C2=[N+](CC)c3ccc(S(=O)(=O)[O-])cc3C2(C)C)C(C)(CCCC(=O)NCc2ccc(COc3nc(N)nc4[nH]cnc34)cc2)c2cc(S(=O)(=O)O)ccc21` (stereo not drawn) [BG-DY647, benzylguanine-Dy647, reference compound] has an EC50 [2] of 0.168 µM and an EC50 [3] of 0.043 µM.

For `Nc1nc(OCc2ccc(CNC(=O)CCSCC(=O)Nc3ccc(-c4c5ccc(=O)cc-5oc5cc(O)ccc45)c(C(=O)O)c3)cc2)c2nc[nH]c2n1` [BG-fluorescein-5-EX, benzylguanine-fluorescein-5-EX, reference compound], the “reactivity of the substrate with the SNAP-tag enzyme” value [4] was “adequate”.

In the case of `CCN1c2cc3c(cc2C(C)=CC1(C)C)C(c1ccc(C(=O)N(C)CCCC(=O)NCc2ccc(C(=O)NCc4ccc(COc5nc(N)nc6[nH]cnc56)cc4)cc2)cc1)=c1cc2c(cc1O3)=[N+](CC)C(C)(C)C=C2C` [BG-methylbenzamide-ATTO647N, ATTO647N-methylbenzamide-BG], the “percentage of labeling of the SNAP-tag enzyme compared with the reference substrate” value [4] is reported as “much better”.

`Nc1ccc2cc3ccc(N)cc3[n+](CCCC(=O)NCc3ccc(C(=O)NCc4ccc(COc5cc(N)nc6[nH]cnc56)cc4)cc3)c2c1` [BG-methylbenzamide-Atto465, Atto465-methylbenzamide-BG] showed an EC50 [2] of 0.213 µM.

In the case of `CCN1/C(=C/C=C/C=C/C2=[N+](CC)c3ccc(S(=O)(=O)[O-])cc3C2(C)C)C(C)(CCCC(=O)NCc2ccc(C(=O)NCc3ccc(COc4nc(N)nc5[nH]cnc45)cc3)cc2)c2cc(S(=O)(=O)O)ccc21` (stereo not drawn) [BG-methylbenzamide-DY647, Dy647-methylbenzamide-BG], the EC50 [2] is reported as 0.0913 µM, the “half saturation concentration, times lower relative to the reference substrate” value ([3]; N-AGT enzyme, versus BG-DY647) is reported as “around 2 times” and the EC50 [3] is reported as 0.0223 µM. For the same compound, the “percentage of labeling of the SNAP-tag enzyme compared with the reference substrate” value [4] was “greatly improved”.

With `Nc1nc(OCc2ccc(CNC(=O)c3ccc(CNC(=O)CCSCC(=O)Nc4ccc(-c5c6ccc(=O)cc-6oc6cc(O)ccc56)c(C(=O)O)c4)cc3)cc2)c2nc[nH]c2n1` [BG-methylbenzamide-fluorescein-5-EX, fluorescein-5-EX-benzylamide-BG] the “reactivity of the substrate with the SNAP-tag enzyme” value [4] was “better than that of the reference substrate”.
